Measurements: ChEMBL document CHEMBL1155240, “Discovery of a new class of protein farnesyltransferase inhibitors in the arylthiophene series” (J Med Chem, 2009)
Active and inactive are the calls of the source. The calls are words filed in the database; no cut-off is given here.

target: not listed separately; assay: Inhibition of yeast recombinant FTase by Lineweaver-Burke plot; set-up: species or system Saccharomyces cerevisiae; conditions: not given

Ki [nM] | SMILES
105 | CC(C)Sc1sc(C(=O)O)c(-c2ccc(Cl)cc2)c1C#N

target: not listed separately; assay: Inhibition of yeast recombinant FTase by non-competitive Lineweaver-Burke plot using farnesyl pyrophosphate substrate; set-up: species or system Saccharomyces cerevisiae; conditions: not given

Ki [nM] | SMILES
110 | CC(C)Sc1sc(C(=O)O)c(-c2ccc(Cl)cc2)c1C#N

system: not listed separately; assay: (§1) Inhibition of yeast recombinant FTase; set-up: species or system Saccharomyces cerevisiae; conditions: not given

IC50 | SMILES
Not Active | CC(C)Sc1scc(-c2ccc(Cl)cc2)c1C#N
Not Active | CON(C)C(=O)c1sc(SC(C)C)c(C#N)c1-c1ccc(Cl)cc1
Not Active | CC(C)Sc1sc(CO)c(-c2ccc(Cl)cc2)c1C#N

same assay, conditions: read-out: IC50

SMILES | IC50 [nM]
CSc1sc(C(=O)NC2CC2)c(-c2ccc(Cl)cc2)c1C#N | 22000
CCOC(=O)c1sc(SC(C)C)c(C#N)c1-c1ccc(Cl)cc1 | 3800
CC(=O)OCc1sc(SC(C)C)c(C#N)c1-c1ccc(Cl)cc1 | 45000
COC(=O)[C@@H](CCSC)NC(=O)c1sc(SC(C)C)c(C#N)c1-c1ccc(Cl)cc1 | 5700
CC(C)Sc1c(C#N)c(-c2ccc(Cl)cc2)c(C(=O)O)n1C | 47000
N#Cc1c(N2CCOCC2)sc(C(=O)O)c1-c1ccc(Cl)cc1 | 28000
CC(C)Sc1nc(-c2ccc(Cl)cc2)c(C(=O)O)s1 | 51000

Now from value to compound:

IC50 [nM] | SMILES
610 | CSc1sc(C(=O)O)c(-c2ccc(Cl)cc2)c1C#N
790 | CC(=O)c1sc(SC(C)C)c(C#N)c1-c1ccc(Cl)cc1
7.5 | CSCC[C@@H](NC(=O)c1sc(SC(C)C)c(C#N)c1-c1ccc(Cl)cc1)C(=O)O
890 | CC(C)CSc1sc(C(=O)O)c(-c2ccc(Cl)cc2)c1C#N
1240 | CCCCSc1sc(C(=O)O)c(-c2ccc(Cl)cc2)c1C#N
325 | CCSc1sc(C(=O)O)c(-c2ccc(Cl)cc2)c1C#N
110 | CC(C)Sc1sc(C(=O)O)c(-c2ccc(Cl)cc2)c1C#N
1450 | N#Cc1c(SC2CCCCC2)sc(C(=O)O)c1-c1ccc(Cl)cc1
345 | CCC(C)Sc1sc(C(=O)O)c(-c2ccc(Cl)cc2)c1C#N (stereo unspecified)
1100 | CC(C)Sc1sc(C(N)=O)c(-c2ccc(Cl)cc2)c1C#N
2000 | CC(C)Sc1oc(C(=O)O)c(-c2ccc(Cl)cc2)c1C#N

system: Saccharomyces cerevisiae; assay: as §1; conditions: not given

Activity | SMILES
inactive | CCOC(=O)c1sc(SC(C)C)nc1-c1ccc(Cl)cc1
inactive | CCOC(=O)c1c(-c2ccc(Cl)cc2)c(C#N)c(SC(C)C)n1C
inactive | CCOC(=O)c1oc(SC(C)C)c(C#N)c1-c1ccc(Cl)cc1
